For one test, the system named is Ki67. The test is described as follows: Ki67 immunofluorescence in HaCaT cells. The following applies: HG HaCaT cells; 5 μmol/L SF or 20 μmol/L CA. In kind it is cell-based, human. As to the method: Human immortalized keratinocytes HaCaT were obtained from the Arizona Cancer Center (see, e.g., Boukamp P, et al., J Cell Biol 106:761-771, 1988). Cells were grown in Dulbecco's modified Eagle's medium (DMEM) containing low glucose (LG, 5.5 mmol/L) and 10% fetal bovine serum (FBS) in an incubator at 37° C. with 5% CO2. For the experiments, the cells were starved in serum-free LG DMEM for 24 h, then either maintained in LG DMEM or switched to high glucose (HG, 25 mmol/L) DMEM for 2 days (see, e.g., Zheng H, et al., Diabetes 60:3055-3066, 2011; Lan C C, et al., Br J Dermatol 159:1103-1115, 2008). For the treatments, the cells were dosed with 5 μmol/L SF or 20 μmol/L CA.
siRNA transfections. […]
Reactive oxygen species (ROS) measurement, cell proliferation and apoptosis. ROS were measured in HaCaT cells using DCF. […] Then, 48 h later, the cells were switched into fresh medium containing 10 μg/mL DCF, incubated 30 min, and fluorescence intensity was measured by flow cytometry. The rate of cell proliferation was measured by two methods (see, e.g., Ren D, et al., Proc Natl Acad Sci USA 108:1433-1438, 2011): 1) detection of Ki67 using indirect immunofluorescence as described previously (see, e.g., Lau A, et al., Mol Cell Biol 30:3275-3285, 2010); and 2) using the xCELLigence system (Roche). […]

In the next test the test system is 8-oxo-dG. The test is described as follows: Oxidative DNA damage (8-oxo-dG IHC) in wound skin tissues of STZ mice. Format: in vivo, mouse. An excerpt: Diabetes mouse model and treatments. Nrf2^+/+ and Nrf2^-/- C57BL/6 mice were described previously (see, e.g., Jiang T, et al., Diabetes 59:850-860, 2010) and were housed and handled in accordance with the University of Arizona Institutional Animal Care policies. The STZ-induced diabetic model was previously described (see, e.g., Zheng H, et al., Diabetes 60:3055-3066, 2011) and only 8 week old male mice were included in this study. Briefly, three weeks after STZ injections, fasting glucose levels (FGL, 4 h fast) were measured using the AlphaTRAK system (Abbott Laboratory, North Chicago, Ill.) and mice with a FGL higher than or equal to 250 mg/dL were considered diabetic and included in the study (see, e.g., FIG. 2A and FIG. 3A for a detailed timeline). The mice (n=5-8) were then allocated randomly to each of the indicated treatment groups and received corn oil (control), 12.5 mg/kg SF or 50 mg/kg CA intraperitoneally every two days until skin tissues were harvested. One week after the treatments, the mice were anesthetized, their backs were shaved and cleaned. […] Gross wound closure was quantified by ImageJ software, and wound healing was expressed as the percentage of the original wound area that had healed. […] Morphology was assessed by hematoxylin and eosin (H&E) staining (Vector laboratory, Burlingame, Calif.). […]

Consider `C[S@@+]([O-])CCCCN=C=S` [SF, L-sulforaphane], for which the Ki67 expression entry in the test with Ki67 is listed as “could restore some of the Ki67 expression”. Besides, in the test on 8-oxo-dG, the “oxidative DNA damage (8-oxo-dG)” value is reported as “greatly alleviated the oxidative DNA damage”.

On to `O=CC=Cc1ccccc1` [CA, Cinnamaldehyde], for which the Ki67 expression result in the test on Ki67 is listed as “could restore some of the Ki67 expression”. The “oxidative DNA damage (8-oxo-dG)” value in the test with 8-oxo-dG is listed as “greatly alleviated the oxidative DNA damage”.
